In patent US20130018061A1, “Method for Improving Exercise and Recovery From Exercise” (priority 2011, published 2013):

Assays:
[1] = 50 mg or 200 mg after cycling exercise, fourteen healthy male subjects; cited from earlier work
[2] = 250 mg caffeine, 200 mg L-theanine, or both; cited from earlier work
[3] = Study 2; effects typically experienced with high amounts of caffeine
Experimental: In this first study, twenty-one subjects (20 male, 1 female), all healthy and between the ages of 20 and 35 years were given the pre-workout supplement in capsule form to be taken 30 to 45 minutes before exercise on an empty stomach in place of any regularly consumed pre-workout product prior to the next exercise session. Subjects were instructed to maintain normal diet and activity. Subjects were surveyed for ratings of perceived effects on energy levels and mental focus. Subjects were also advised to supply general comments regarding the supplement in terms of negative side effects, comparison to other products, overall satisfaction and effectiveness.

[4] = absorbed in the small intestine; cited from earlier work

| Structure (SMILES) | post-exercise mental regeneration [1] | effect on alertness, anxiety and blood pressure [2] | jitters and energy crash [3] | time of peak plasma levels [4] |
| --- | --- | --- | --- | --- |
| CCNC(=O)CC[C@H](N)C(=O)O [L-theanine, γ-N-ethylglutamine] | accelerated post-exercise mental regeneration | only acted to counter the increase in blood pressure | prevented jitters and the energy crash | ≤ 30 min |
| Cn1c(=O)c2c(ncn2C)n(C)c1=O [caffeine, 1,3,7-trimethylxanthine] |  | increased alertness, anxiety, and blood pressure |  |  |
